# Measurements taken from patent publication US12522587B2, “Cancer treatments targeting cancer stem cells” (Remedy Plan, Inc., priority 2018, dated 2026).
# System: AGS human gastric adenocarcinoma cells
# Assay: Human microarray study (Affymetrix Clariom S) of treated AGS cells
# Type: cell-based
# Conditions: two days
# Experimental: AGS human gastric adenocarcinoma cells were treated with compound I-1, or DMSO alone (as a negative control) for two days. After two days, RNA was isolated from compound I-1 treated cells and DMSO treated cells, in duplicate, and subjected to microarray analysis using AFFYMETRIX CLARIOM S microarrays. Data were represented as fold change relative to the compound I-1 treated cells, negative values represented genes that were on higher in compound I-1 treated cells than in DMSO treated cells, and positive values represented genes that were on higher in DMSO treated cells than in compound I-1 treated cells. Values were averaged for the duplicate samples. We included data for the genes whose expression was altered by more than 3 fold, either up or down, in response to compound I-1.
# Negative numbers indicate fold upregulation upon drug treatment. Positive numbers indicate fold downregulation upon drug treatment. […] In addition, Chac1, PCK2, and SLC7A11 were all shown to have a tumor promoting activity and to be associated with the more dangerous and lethal forms of cancer, and these three genes were the three most strongly repressed genes measured in this analysis. There were other examples in the data that supported this model, but the overall model was that compound I-1 increased the expression of tumor suppressor genes, and decreased the expression of tumor promoting genes.
structure (smiles),measurement,setting,value
CCC(=O)N1CCc2cc(-c3ccc(C(=O)NCc4cccnc4)cc3)ccc21 [Compound I-1],expression of tumor promoting genes,"microarray, overall model",decreased
same,expression of tumor suppressor genes,"microarray, overall model",increased
same,Fold Change ABHD4,negative = upregulated,−15.57 fold
same,Fold Change ACAT2,negative = upregulated,−5.41 fold
same,Fold Change ACSS2,negative = upregulated,−8.4 fold
same,Fold Change AKR1B10,negative = upregulated,−4.25 fold
same,Fold Change AKR1B15,negative = upregulated,−3.05 fold
same,Fold Change AKR1C1,negative = upregulated,−16.86 fold
same,Fold Change AKR1C2,negative = upregulated,−6.95 fold
same,Fold Change AKR1C3,negative = upregulated,−8.57 fold
same,Fold Change ANO6,negative = upregulated,−3.15 fold
same,Fold Change ARHGEF3,negative = upregulated,−6.93 fold
same,Fold Change ARRDC3,negative = upregulated,−5.99 fold
same,Fold Change AVPI1,negative = upregulated,−3.14 fold
same,Fold Change BCL2L11,negative = upregulated,−4 fold
same,Fold Change BCL6,negative = upregulated,−3.01 fold
same,Fold Change BHLHE40,negative = upregulated,−7.94 fold
same,Fold Change CA5B,negative = upregulated,−4.1 fold
same,Fold Change CBFA2T2,negative = upregulated,−3.24 fold
same,Fold Change CCNG2,negative = upregulated,−3.58 fold
same,Fold Change CDA,negative = upregulated,−3.79 fold
same,Fold Change CDC42EP4,negative = upregulated,−3.75 fold
same,Fold Change CDKN1A,negative = upregulated,−3.11 fold
same,Fold Change CNNM2,negative = upregulated,−3.68 fold
same,Fold Change CREBRF,negative = upregulated,−5.55 fold
same,Fold Change CSF1,negative = upregulated,−3.31 fold
same,Fold Change CXCL17,negative = upregulated,−4.1 fold
same,Fold Change CYP51A1,negative = upregulated,−4.74 fold
same,Fold Change DBP,negative = upregulated,−10.5 fold
same,Fold Change DHCR7,negative = upregulated,−8.77 fold
same,Fold Change DHCR24,negative = upregulated,−3.44 fold
same,Fold Change DNAJB4,negative = upregulated,−3.09 fold
same,Fold Change DNAJB5,negative = upregulated,−3.84 fold
same,Fold Change DNMBP,negative = upregulated,−4 fold
same,Fold Change DUSP10,negative = upregulated,−27.17 fold
same,Fold Change EBP,negative = upregulated,−3.69 fold
same,Fold Change EDN2,negative = upregulated,−3 fold
same,Fold Change EFNA1,negative = upregulated,−5.15 fold
same,Fold Change EPHA4,negative = upregulated,−4.56 fold
same,Fold Change EYA3,negative = upregulated,−3.81 fold
same,Fold Change F2RL1,negative = upregulated,−3.37 fold
same,Fold Change FAM46A,negative = upregulated,−4.76 fold
same,Fold Change FAM46C,negative = upregulated,−3.6 fold
same,Fold Change FAM160A1,negative = upregulated,−3.86 fold
same,Fold Change FASN,negative = upregulated,−5.82 fold
same,Fold Change FDFT1,negative = upregulated,−7.56 fold
same,Fold Change FGA,negative = upregulated,−13.67 fold
same,Fold Change FGG,negative = upregulated,−4.11 fold
same,Fold Change G6PD,negative = upregulated,−3.11 fold
same,Fold Change GALM,negative = upregulated,−3.17 fold
same,Fold Change GATSL2,negative = upregulated,−3.58 fold
same,Fold Change GDF15,negative = upregulated,−4.83 fold
same,Fold Change GNE,negative = upregulated,−3.21 fold
same,Fold Change GRHL3,negative = upregulated,−4.96 fold
same,Fold Change HHLA2,negative = upregulated,−3.59 fold
same,Fold Change HK1,negative = upregulated,−6.34 fold
same,Fold Change HMGCR,negative = upregulated,−4.8 fold
same,Fold Change HMGCS1,negative = upregulated,−9.9 fold
same,Fold Change HMOX1,negative = upregulated,−14.23 fold
same,Fold Change HSPA1A; HSPA1B,negative = upregulated,−5.34 fold
same,Fold Change HSPA1B; HSPA1A,negative = upregulated,−5.04 fold
same,Fold Change HSPB8,negative = upregulated,−4.71 fold
same,Fold Change IDI1,negative = upregulated,−5.77 fold
same,Fold Change IL1RN,negative = upregulated,−4.04 fold
same,Fold Change ILF2,negative = upregulated,−3.2 fold
same,Fold Change INPP5D,negative = upregulated,−3.12 fold
same,Fold Change INSIG1,negative = upregulated,−8.5 fold
same,Fold Change JAG1,negative = upregulated,−3.31 fold
same,Fold Change JAK2,negative = upregulated,−3.6 fold
same,Fold Change KAT6B,negative = upregulated,−3.77 fold
same,Fold Change LEMD1,negative = upregulated,−3.16 fold
same,Fold Change LIPG,negative = upregulated,−3.65 fold
same,Fold Change LNX1,negative = upregulated,−4.32 fold
same,Fold Change LPIN1; MIR548S,negative = upregulated,−3.22 fold
same,Fold Change LY6D,negative = upregulated,−4.81 fold
same,Fold Change LYPD3,negative = upregulated,−4.09 fold
same,Fold Change MICA,negative = upregulated,−3.66 fold
same,Fold Change MICB,negative = upregulated,−12.71 fold
same,Fold Change MID1,negative = upregulated,−3.25 fold
same,Fold Change MSMO1,negative = upregulated,−9.47 fold
same,Fold Change MT1E,negative = upregulated,−3.03 fold
same,Fold Change MT1L,negative = upregulated,−3 fold
same,Fold Change MTSS1L,negative = upregulated,−3.41 fold
same,Fold Change MVD,negative = upregulated,−3.82 fold
same,Fold Change MVK,negative = upregulated,−3.11 fold
same,Fold Change MXD1,negative = upregulated,−6.23 fold
same,Fold Change MYLIP; MIR4639,negative = upregulated,−3.88 fold
same,Fold Change NEU1,negative = upregulated,−4.89 fold
same,Fold Change NEURL3,negative = upregulated,−3.41 fold
same,Fold Change NFAT5,negative = upregulated,−3.32 fold
same,Fold Change NFKBIA,negative = upregulated,−4.97 fold
same,Fold Change NR1D1,negative = upregulated,−23.3 fold
same,Fold Change NR1D2,negative = upregulated,−3.01 fold
same,Fold Change NSDHL,negative = upregulated,−3.29 fold
same,Fold Change OCLM,negative = upregulated,−3.22 fold
same,Fold Change OSGIN1,negative = upregulated,−3.63 fold
same,Fold Change OTUD1,negative = upregulated,−3.29 fold
same,Fold Change OVOL1,negative = upregulated,−4.01 fold
same,Fold Change PADI1,negative = upregulated,−3.48 fold
same,Fold Change PCDH7,negative = upregulated,−3.81 fold
same,Fold Change PDGFRL,negative = upregulated,−6.65 fold
same,Fold Change PERI; MIR6883,negative = upregulated,−16.75 fold
same,Fold Change PGM2L1,negative = upregulated,−3.76 fold
same,Fold Change PIM1,negative = upregulated,−3.7 fold
same,Fold Change PLK2,negative = upregulated,−3.13 fold
same,Fold Change PLPP3,negative = upregulated,−3.74 fold
same,Fold Change POLR2L,negative = upregulated,−3.14 fold
same,Fold Change PRDM1,negative = upregulated,−3.06 fold
same,Fold Change PRSS22,negative = upregulated,−4.6 fold
same,Fold Change PSCA,negative = upregulated,−3.18 fold
same,Fold Change PVRL1,negative = upregulated,−3.57 fold
same,Fold Change PVRL4,negative = upregulated,−3.32 fold
same,Fold Change RAB30,negative = upregulated,−3.82 fold
same,Fold Change RASSF5,negative = upregulated,−5.9 fold
same,Fold Change RBM26,negative = upregulated,−6.5 fold
same,Fold Change REG1A,negative = upregulated,−3.05 fold
same,Fold Change RHOV,negative = upregulated,−4.66 fold
same,Fold Change RND1,negative = upregulated,−5.3 fold
same,Fold Change RRAGC,negative = upregulated,−3.01 fold
same,Fold Change RSRP1,negative = upregulated,−3.61 fold
same,Fold Change RYBP,negative = upregulated,−3.38 fold
same,Fold Change SAT2,negative = upregulated,−3.99 fold
same,Fold Change SC5D,negative = upregulated,−3.39 fold
same,Fold Change SEC24D,negative = upregulated,−3.84 fold
same,Fold Change SLC20A1,negative = upregulated,−4.87 fold
same,Fold Change SLC25A25,negative = upregulated,−3.73 fold
same,Fold Change SLC30A1,negative = upregulated,−4.84 fold
same,Fold Change SLN,negative = upregulated,−5.63 fold
same,Fold Change SPATA5,negative = upregulated,−3.26 fold
same,Fold Change SQLE,negative = upregulated,−4.32 fold
same,Fold Change STK17B,negative = upregulated,−6.26 fold
same,Fold Change SUSD6,negative = upregulated,−3.48 fold
same,Fold Change TAF5,negative = upregulated,−3.41 fold
same,Fold Change TEF,negative = upregulated,−6.45 fold
same,Fold Change TGFBR3,negative = upregulated,−3.86 fold
same,Fold Change TIAL1,negative = upregulated,−4.62 fold
same,Fold Change TKT,negative = upregulated,−3.56 fold
same,Fold Change TMEM2,negative = upregulated,−4.49 fold
same,Fold Change TMEM263,negative = upregulated,−3.01 fold
same,Fold Change TMPRSS2,negative = upregulated,−5.06 fold
same,Fold Change TNFSF13B,negative = upregulated,−4.12 fold
same,Fold Change TRIM24,negative = upregulated,−3.01 fold
same,Fold Change UGDH,negative = upregulated,−4.16 fold
same,Fold Change YBX1,negative = upregulated,−3.62 fold
same,Fold Change ZNF114,negative = upregulated,−7.07 fold
same,Fold Change ZNRF3,negative = upregulated,−3.14 fold
same,Fold Change ZSWIM6,negative = upregulated,−3.28 fold
same,Fold Change SQSTM1,"negative = upregulated, first SQSTM1 entry",−4.27 fold
same,Fold Change SQSTM1,"negative = upregulated, second SQSTM1 entry",−3.5 fold
same,Fold Change AARS,positive = downregulated,3.12 fold
same,Fold Change AJUBA,positive = downregulated,8.65 fold
same,Fold Change AKTIP,positive = downregulated,3.39 fold
same,Fold Change ARHGEF2,positive = downregulated,4.73 fold
same,Fold Change ASNS,positive = downregulated,12.78 fold
same,Fold Change ASS1,positive = downregulated,7.34 fold
same,Fold Change ATF5; MIR4751,positive = downregulated,6.55 fold
same,Fold Change BRCA1,positive = downregulated,4.22 fold
same,Fold Change BTC,positive = downregulated,5.04 fold
same,Fold Change C4BPB,positive = downregulated,3.69 fold
same,Fold Change C5orf28,positive = downregulated,4.4 fold
same,Fold Change C12orf4,positive = downregulated,3.45 fold
same,Fold Change C14orf79,positive = downregulated,3.68 fold
same,Fold Change C17orf80,positive = downregulated,4.3 fold
same,Fold Change CARS,positive = downregulated,5.53 fold
same,Fold Change CCDC125,positive = downregulated,3.31 fold
same,Fold Change CCDC138,positive = downregulated,3.07 fold
same,Fold Change CDC7,positive = downregulated,3.01 fold
same,Fold Change CDH11,positive = downregulated,4.69 fold
same,Fold Change CDX2,positive = downregulated,3.07 fold
